pIC50: −log10 of the molar value.
Legend:
[1] = molecular target: Voltage-dependent L-type calcium channel subunit alpha-1C (Cavia porcellus, UniProt O35505); test: Antagonist activity at Calcium channel in Cavia porcellus (guinea pig) ileal smooth muscle assessed as inhibition of 40 mM KCl-induced contraction compound pretreated for 15 min before KCl treatment
Mus musculus [2] = test: Anticonvulsant activity against pentylenetetrazole-induced seizures in Mus musculus NMRI (mouse) assessed as time of maximal effect at 5 mg/kg, ip administered 30 min before PTZ challenge; assay type: functional; conditions: route intraperitoneal
Mus musculus [3] = test: Anticonvulsant activity against pentylenetetrazole-induced seizures in Mus musculus NMRI (mouse) assessed as time of maximal effect at 10 mg/kg, ip administered 30 min before PTZ challenge (reference value: 24.86 +/- 0.96 min); assay type: functional; conditions: route intraperitoneal
Mus musculus [4] = test: Anticonvulsant activity against pentylenetetrazole-induced seizures in Mus musculus NMRI (mouse) assessed as time of maximal effect at 20 mg/kg, ip administered 30 min before PTZ challenge; assay type: functional; conditions: route intraperitoneal
Mus musculus [5] = test: Anticonvulsant activity against pentylenetetrazole-induced seizures in Mus musculus NMRI (mouse) assessed as time of maximal effect at 10 mg/kg, ip administered 15 min before PTZ challenge (reference value: 24.86 +/- 0.96 min); assay type: functional; conditions: route intraperitoneal
Mus musculus [6] = test: Anticonvulsant activity against pentylenetetrazole-induced seizures in Mus musculus NMRI (mouse) assessed as time of maximal effect at 5 mg/kg, ip administered 15 min before PTZ challenge; assay type: functional; conditions: route intraperitoneal
Mus musculus [7] = test: Anticonvulsant activity against pentylenetetrazole-induced seizures in Mus musculus NMRI (mouse) assessed as time of maximal effect at 20 mg/kg, ip administered 15 min before PTZ challenge; assay type: functional; conditions: route intraperitoneal
Mus musculus [8] = test: Anticonvulsant activity against pentylenetetrazole-induced seizures in Mus musculus NMRI (mouse) assessed as time of maximal effect at 5 mg/kg, ip administered 60 min before PTZ challenge; assay type: functional; conditions: route intraperitoneal
Mus musculus [9] = test: Anticonvulsant activity against pentylenetetrazole-induced seizures in Mus musculus NMRI (mouse) assessed as time of maximal effect at 20 mg/kg, ip administered 60 min before PTZ challenge; assay type: functional; conditions: route intraperitoneal
Mus musculus [10] = test: Anticonvulsant activity against pentylenetetrazole-induced seizures in Mus musculus NMRI (mouse) assessed as time of maximal effect at 60 mg/kg, ip administered 15 min before PTZ challenge (reference value: 24.86 +/- 0.96 min); assay type: functional; conditions: route intraperitoneal

Sequence of Voltage-dependent L-type calcium channel subunit alpha-1C (O35505 whole entry): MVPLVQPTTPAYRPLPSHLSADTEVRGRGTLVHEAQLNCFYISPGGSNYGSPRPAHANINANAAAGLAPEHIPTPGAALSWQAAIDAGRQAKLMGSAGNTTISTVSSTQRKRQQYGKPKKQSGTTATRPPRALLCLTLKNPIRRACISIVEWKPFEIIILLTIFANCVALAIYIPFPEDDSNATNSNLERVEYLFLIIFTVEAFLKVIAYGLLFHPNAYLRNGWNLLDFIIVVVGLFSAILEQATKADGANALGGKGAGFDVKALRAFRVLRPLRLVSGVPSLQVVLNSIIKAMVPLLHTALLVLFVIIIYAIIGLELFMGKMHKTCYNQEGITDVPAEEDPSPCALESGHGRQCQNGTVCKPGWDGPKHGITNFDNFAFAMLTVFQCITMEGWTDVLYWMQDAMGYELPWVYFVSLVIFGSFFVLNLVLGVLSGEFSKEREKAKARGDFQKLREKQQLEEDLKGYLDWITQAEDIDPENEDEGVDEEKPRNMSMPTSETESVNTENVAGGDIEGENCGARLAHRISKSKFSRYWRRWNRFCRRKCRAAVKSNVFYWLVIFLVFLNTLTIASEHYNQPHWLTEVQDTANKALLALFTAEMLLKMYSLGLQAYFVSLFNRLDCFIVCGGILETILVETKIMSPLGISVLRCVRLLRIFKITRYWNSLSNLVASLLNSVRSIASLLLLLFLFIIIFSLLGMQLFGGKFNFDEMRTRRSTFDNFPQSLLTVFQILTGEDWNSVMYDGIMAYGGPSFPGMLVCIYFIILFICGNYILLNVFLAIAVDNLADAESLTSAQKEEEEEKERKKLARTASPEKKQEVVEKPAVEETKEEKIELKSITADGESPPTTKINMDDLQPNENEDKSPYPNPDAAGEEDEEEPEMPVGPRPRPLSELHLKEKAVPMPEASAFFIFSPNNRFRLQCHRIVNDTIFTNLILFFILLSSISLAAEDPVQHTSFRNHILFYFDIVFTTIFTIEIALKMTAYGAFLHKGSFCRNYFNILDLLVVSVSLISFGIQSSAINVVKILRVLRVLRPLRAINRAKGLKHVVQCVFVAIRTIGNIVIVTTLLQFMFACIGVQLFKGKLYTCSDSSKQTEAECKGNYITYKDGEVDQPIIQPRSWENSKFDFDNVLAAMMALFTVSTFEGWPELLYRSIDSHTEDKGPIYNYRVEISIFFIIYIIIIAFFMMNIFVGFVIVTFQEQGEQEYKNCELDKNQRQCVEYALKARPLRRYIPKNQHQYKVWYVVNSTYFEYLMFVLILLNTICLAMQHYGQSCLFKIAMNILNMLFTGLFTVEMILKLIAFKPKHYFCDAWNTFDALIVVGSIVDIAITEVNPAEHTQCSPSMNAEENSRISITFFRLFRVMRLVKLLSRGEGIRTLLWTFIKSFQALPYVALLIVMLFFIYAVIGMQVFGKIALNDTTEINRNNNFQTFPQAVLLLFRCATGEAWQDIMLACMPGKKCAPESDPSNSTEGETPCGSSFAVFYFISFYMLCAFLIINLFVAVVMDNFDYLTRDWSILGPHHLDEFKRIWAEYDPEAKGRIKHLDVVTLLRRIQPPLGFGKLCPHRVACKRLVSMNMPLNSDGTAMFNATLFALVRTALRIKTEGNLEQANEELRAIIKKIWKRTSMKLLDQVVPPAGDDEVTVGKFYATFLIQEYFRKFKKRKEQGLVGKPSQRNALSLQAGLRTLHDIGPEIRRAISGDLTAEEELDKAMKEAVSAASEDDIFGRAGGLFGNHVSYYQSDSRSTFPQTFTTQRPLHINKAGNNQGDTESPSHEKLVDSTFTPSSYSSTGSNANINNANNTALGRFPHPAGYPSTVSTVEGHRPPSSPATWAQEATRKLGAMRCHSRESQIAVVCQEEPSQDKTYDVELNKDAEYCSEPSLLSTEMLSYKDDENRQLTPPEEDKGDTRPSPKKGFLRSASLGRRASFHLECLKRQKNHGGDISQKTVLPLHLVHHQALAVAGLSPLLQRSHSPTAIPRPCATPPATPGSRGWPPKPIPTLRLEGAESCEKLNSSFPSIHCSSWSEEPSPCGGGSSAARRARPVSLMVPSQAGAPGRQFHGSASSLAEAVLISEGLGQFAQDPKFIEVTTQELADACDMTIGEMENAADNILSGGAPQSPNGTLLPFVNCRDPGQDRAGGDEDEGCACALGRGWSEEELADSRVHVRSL

SMILES	pIC50 [1]	Time (Mus musculus [2]) [min]	Time (Mus musculus [3]) [min]	Time (Mus musculus [4]) [min]	further results
CCCOC(=O)C1=C(C)NC(C)=C(C(=O)OCCC)C1c1csc(-c2ccc(Cl)cc2)n1	5.32	34.75	36.26	42.05	
CC1=C(C(=O)OC(C)C)C(c2csc(-c3ccc(Cl)cc3)n2)C(C(=O)OC(C)C)=C(C)N1	4.43				
CC1=C(C(=O)OCC(C)C)C(c2csc(-c3ccc(Cl)cc3)n2)C(C(=O)OCC(C)C)=C(C)N1	4.60	37.5	39.32	47.62	
CC1=C(C(=O)OC(C)(C)C)C(c2csc(-c3ccc(Cl)cc3)n2)C(C(=O)OC(C)(C)C)=C(C)N1	4.68				
CC1=C(C(=O)OCc2ccccc2)C(c2csc(-c3ccc(Cl)cc3)n2)C(C(=O)OCc2ccccc2)=C(C)N1	4.96				
CC1=C(C(=O)OCCc2ccccc2)C(c2csc(-c3ccc(Cl)cc3)n2)C(C(=O)OCCc2ccccc2)=C(C)N1	3.30				
CC1=C(C(=O)OC(C)c2ccccc2)C(c2csc(-c3ccc(Cl)cc3)n2)C(C(=O)OC(C)c2ccccc2)=C(C)N1 (centres undefined)	3.40				
COC(=O)C1=C(C)NC(C)=C(C(=O)OC(C)C)C1c1csc(-c2ccc(Cl)cc2)n1 (centres undefined)	4.87				
COC(=O)C1=C(C)NC(C)=C(C(=O)OCC(C)C)C1c1csc(-c2ccc(Cl)cc2)n1 (centres undefined)	4.33				
COC(=O)C1=C(C)NC(C)=C(C(=O)OC(C)(C)C)C1c1csc(-c2ccc(Cl)cc2)n1 (centres undefined)	4.34				
COC(=O)C1=C(C)NC(C)=C(C(=O)OCc2ccccc2)C1c1csc(-c2ccc(Cl)cc2)n1 (centres undefined)	4.19				
CCOC(=O)C1=C(C)NC(C)=C(C(=O)OCc2ccccc2)C1c1csc(-c2ccc(Cl)cc2)n1 (centres undefined)	5.48				Time (Mus musculus [8]): 33.87 min; Time (Mus musculus [9]): 39.6 min; Time (Mus musculus [10]): 37.82 min
COC(=O)C1=C(C)NC(C)=C(C(=O)OCCc2ccccc2)C1c1csc(-c2ccc(Cl)cc2)n1 (centres undefined)	4.99				
CCOC(=O)C1=C(C)NC(C)=C(C(=O)OCCc2ccccc2)C1c1csc(-c2ccc(Cl)cc2)n1 (centres undefined)	4.92				
COC(=O)C1=C(C)NC(C)=C(C(=O)OC(C)c2ccccc2)C1c1csc(-c2ccc(Cl)cc2)n1 (centres undefined)	5.12	27.82	42.1	43.06	
CCOC(=O)C1=C(C)NC(C)=C(C(=O)OC(C)c2ccccc2)C1c1csc(-c2ccc(Cl)cc2)n1 (centres undefined)	4.86				
COC(=O)C1=C(C)NC(C)=C(C(=O)OC)C1c1ccccc1[N+](=O)[O-] [NIFEDIPINE]		40.66	43.88	48.3	

Further lines, with some results ahead:

pIC50 [1]	SMILES	Time (Mus musculus [2]) [min]	Time (Mus musculus [3]) [min]	Time (Mus musculus [4]) [min]	further results
5.35	COC(=O)C1=C(C)NC(C)=C(C(=O)OC)C1c1csc(-c2ccc(Cl)cc2)n1	39.05	40.94	44.3	
5.44	CCOC(=O)C1=C(C)NC(C)=C(C(=O)OCC)C1c1csc(-c2ccc(Cl)cc2)n1	27.76	32.64	39.07	
4.72	CC1=C(C(=O)OC2CCCC2)C(c2csc(-c3ccc(Cl)cc3)n2)C(C(=O)OC2CCCC2)=C(C)N1				
4.96	CC1=C(C(=O)OC2CCCCC2)C(c2csc(-c3ccc(Cl)cc3)n2)C(C(=O)OC2CCCCC2)=C(C)N1				Time (Mus musculus [5]): 35.59 min; Time (Mus musculus [6]): 35.65 min; Time (Mus musculus [7]): 37.86 min
4.66	CCOC(=O)C1=C(C)NC(C)=C(C(=O)OC)C1c1csc(-c2ccc(Cl)cc2)n1 (centres undefined)				
5.23	CCCOC(=O)C1=C(C)NC(C)=C(C(=O)OC)C1c1csc(-c2ccc(Cl)cc2)n1 (centres undefined)	31.7	37.6	43.8	
5.39	CCCOC(=O)C1=C(C)NC(C)=C(C(=O)OCC)C1c1csc(-c2ccc(Cl)cc2)n1 (centres undefined)				Time (Mus musculus [8]): 34.5 min; Time (Mus musculus [9]): 42.32 min; Time (Mus musculus [10]): 37.07 min
5.59	CCOC(=O)C1=C(C)NC(C)=C(C(=O)OC(C)C)C1c1csc(-c2ccc(Cl)cc2)n1 (centres undefined)	34.2	35.87	44.64	
4.81	CCOC(=O)C1=C(C)NC(C)=C(C(=O)OCC(C)C)C1c1csc(-c2ccc(Cl)cc2)n1 (centres undefined)				
4.04	CCOC(=O)C1=C(C)NC(C)=C(C(=O)OC(C)(C)C)C1c1csc(-c2ccc(Cl)cc2)n1 (centres undefined)				
5.14	COC(=O)C1=C(C)NC(C)=C(C(=O)OC2CCCC2)C1c1csc(-c2ccc(Cl)cc2)n1 (centres undefined)	33.22	34.42	42.7	
5.08	CCOC(=O)C1=C(C)NC(C)=C(C(=O)OC2CCCC2)C1c1csc(-c2ccc(Cl)cc2)n1 (centres undefined)	39.6	38.8	47.8	
4.14	COC(=O)C1=C(C)NC(C)=C(C(=O)OC2CCCCC2)C1c1csc(-c2ccc(Cl)cc2)n1 (centres undefined)				
4.00	CCOC(=O)C1=C(C)NC(C)=C(C(=O)OC2CCCCC2)C1c1csc(-c2ccc(Cl)cc2)n1 (centres undefined)				

— ChEMBL document CHEMBL3045495, “Lipophilic 2-(4-chlorophenyl)-4-thiazolyl-1,4-dihydropyridines: synthesis, calcium channel antagonist activity, and protection against pentylenetetrazole-induced seizure” (Med Chem Res, 2009)
